What is called DC50 is the concentration giving 50% degradation. A high value points to degradation only at high concentration. The term Dmax denotes the largest share of the target that was removed. Higher therefore signals a fuller loss of target.

The target of one experiment is T1, SMARCA2 (Homo sapiens, UniProt P51531).
T1 construct: endogenous in cells
As to the kind of experiment: SMARCA2 Cellular Degradation Assay (Western blot analysis on Jess platform). It counts as cell-based. To be noted: for DC50 / Dmax: cellular degradation; for Fold Selectivity SMARCA4/2: ratio DC50 SMARCA4 / DC50 SMARCA2. On the procedure:
SMARCA2 Cellular Degradation Assay
Western Blot Analysis for SMARCA2 Degradation
Frozen cell pellets were thawed on ice and resuspended in RIPA lysis buffer (Millipore, Cat. No. 20-188) supplemented with 0.2% SDS (Fisher Scientific, Cat. No. 24730020), 200 mM β-glycerophosphate (Alfa Aesar, Cat. No. J62121), 500 mM NaF (Rigaku, Cat. No. 1008046), protease inhibitor (1 tablet per 10 mL, Sigma, Cat. No. 11836170001), 250 U/μL benzonase (Millipore, Cat. No. 71206), 200 mM sodium orthovanadate (FivePhoton, Cat. No. ActVO-4), and 100 mM PMSF (Sigma, Cat. No. 10837091001). 50 μL lysis buffer was used to lyse each pellet containing 5×10E5-1×10E6 live cells extracted from tumors. Lysates were centrifuged for 10 mins at 20,817×g and lysate supernatants were saved for further analysis. Protein levels were determined by the BCA Assay performed according to manufacturer's protocol (EMD Millipore, Cat. No. 71285-3). Samples were evaluated by Western blot analysis on the Jess Platform (ProteinSimple). Lysates were diluted with complete lysis buffer (as described above) and 5 μg of total proteins were loaded onto each capillary. Samples were prepared using the ProteinSimple EZ Standard Pack 1 (Cat. No. PS-ST01EZ-8; containing tubes with powdered (5×) Fluorescent Master Mix, DTT, and biotinylated ladder) and run using the ProteinSimple 25-Capillary Cartridge kit (Cat. No. SM-W004; containing 25-capillary cartridge Wash reagent, and 10× Sample Buffer reagent), the ProteinSimple Anti-Rabbit HRP Detection Module for Jess (Cat. No. DM-001; containing Antibody Diluent, anti-rabbit secondary antibody, Luminol-S, Peroxide, and Streptavidin-HRP), and the ProteinSimple Anti-Mouse NIR Detection Module for Jess (Cat. No. DM-009; containing Antibody Diluent, anti-mouse NIR secondary antibody, and Streptavidin-NIR) as the following describes. The DTT was reconstituted with 40 μL water to make a 400 mM solution, 20 μL of the DTT solution plus 20 μL of 10× Sample Buffer were added to reconstitute the 5× Fluorescent Master Mix, and 20 μL of H2O was used to reconstitute the biotinylated ladder. For each sample, lysate (4 μL) was combined with 5× Fluorescent Master Mix (1 μL) and heated at 95° C. for 5 minutes. Samples were cooled and stored on ice. Primary antibody solution was made using anti-SMARCA2 antibody (Abcam, Cat. No. 240648, 1:10) and anti-beta-Actin antibody (Cell Signaling Technology, Cat. No. 3700S, 1:25) in antibody diluent. The 25-capillary cartridges were prepared per standard ProteinSimple protocol with each sample in a column. For the biotinylated ladder in column 1, the following were added: 5 µL of ladder sample in Row A, 10 μL of antibody diluent in Rows B and C, 10 μL of Streptavidin-NIR in Row D, and 15 μL of a 50:50 Luminol-s/Peroxide solution in Row E. For each test sample (columns 2-25), the following were added per column: 5 μL of sample in Row A, 10 μL of antibody diluent in Row B, 10 μL of primary antibody solution in Row C, 10 μL of secondary antibody in Row D, and 15 μL of a 50:50 Luminol-S/Peroxide solution in Row E. 500 μL wash buffer was added to the wash buffer wells in the cartridge and cartridge was spun at 1000×g for 5 minutes prior to loading into the Jess. Samples were run using the Chemiluminescence and Fluorescence immunoassays in the ProteinSimple Compass for SimpleWestern program (version 5.0.0). After running, SMARCA2, actin, and background curves were identified in the Compass software; note that in the Compass software, the electropherograms are also visualized as bands for comparison with standard Western blot outputs. The electropherogram area reading for each sample curve was normalized to that of the corresponding actin curve per column following background (capillary background) subtraction using the following equation: […]
Following normalization, the percentage of SMARCA2 remaining per sample relative to the vehicle control was calculated as follows: […]
Background: Immunoblotting shows a protein as a band on a membrane.

The target in another experiment is T2, SMARCA4 (Homo sapiens, UniProt P51532).
T2 construct: endogenous in cells
T2 sequence (P51532 whole entry, species assumed): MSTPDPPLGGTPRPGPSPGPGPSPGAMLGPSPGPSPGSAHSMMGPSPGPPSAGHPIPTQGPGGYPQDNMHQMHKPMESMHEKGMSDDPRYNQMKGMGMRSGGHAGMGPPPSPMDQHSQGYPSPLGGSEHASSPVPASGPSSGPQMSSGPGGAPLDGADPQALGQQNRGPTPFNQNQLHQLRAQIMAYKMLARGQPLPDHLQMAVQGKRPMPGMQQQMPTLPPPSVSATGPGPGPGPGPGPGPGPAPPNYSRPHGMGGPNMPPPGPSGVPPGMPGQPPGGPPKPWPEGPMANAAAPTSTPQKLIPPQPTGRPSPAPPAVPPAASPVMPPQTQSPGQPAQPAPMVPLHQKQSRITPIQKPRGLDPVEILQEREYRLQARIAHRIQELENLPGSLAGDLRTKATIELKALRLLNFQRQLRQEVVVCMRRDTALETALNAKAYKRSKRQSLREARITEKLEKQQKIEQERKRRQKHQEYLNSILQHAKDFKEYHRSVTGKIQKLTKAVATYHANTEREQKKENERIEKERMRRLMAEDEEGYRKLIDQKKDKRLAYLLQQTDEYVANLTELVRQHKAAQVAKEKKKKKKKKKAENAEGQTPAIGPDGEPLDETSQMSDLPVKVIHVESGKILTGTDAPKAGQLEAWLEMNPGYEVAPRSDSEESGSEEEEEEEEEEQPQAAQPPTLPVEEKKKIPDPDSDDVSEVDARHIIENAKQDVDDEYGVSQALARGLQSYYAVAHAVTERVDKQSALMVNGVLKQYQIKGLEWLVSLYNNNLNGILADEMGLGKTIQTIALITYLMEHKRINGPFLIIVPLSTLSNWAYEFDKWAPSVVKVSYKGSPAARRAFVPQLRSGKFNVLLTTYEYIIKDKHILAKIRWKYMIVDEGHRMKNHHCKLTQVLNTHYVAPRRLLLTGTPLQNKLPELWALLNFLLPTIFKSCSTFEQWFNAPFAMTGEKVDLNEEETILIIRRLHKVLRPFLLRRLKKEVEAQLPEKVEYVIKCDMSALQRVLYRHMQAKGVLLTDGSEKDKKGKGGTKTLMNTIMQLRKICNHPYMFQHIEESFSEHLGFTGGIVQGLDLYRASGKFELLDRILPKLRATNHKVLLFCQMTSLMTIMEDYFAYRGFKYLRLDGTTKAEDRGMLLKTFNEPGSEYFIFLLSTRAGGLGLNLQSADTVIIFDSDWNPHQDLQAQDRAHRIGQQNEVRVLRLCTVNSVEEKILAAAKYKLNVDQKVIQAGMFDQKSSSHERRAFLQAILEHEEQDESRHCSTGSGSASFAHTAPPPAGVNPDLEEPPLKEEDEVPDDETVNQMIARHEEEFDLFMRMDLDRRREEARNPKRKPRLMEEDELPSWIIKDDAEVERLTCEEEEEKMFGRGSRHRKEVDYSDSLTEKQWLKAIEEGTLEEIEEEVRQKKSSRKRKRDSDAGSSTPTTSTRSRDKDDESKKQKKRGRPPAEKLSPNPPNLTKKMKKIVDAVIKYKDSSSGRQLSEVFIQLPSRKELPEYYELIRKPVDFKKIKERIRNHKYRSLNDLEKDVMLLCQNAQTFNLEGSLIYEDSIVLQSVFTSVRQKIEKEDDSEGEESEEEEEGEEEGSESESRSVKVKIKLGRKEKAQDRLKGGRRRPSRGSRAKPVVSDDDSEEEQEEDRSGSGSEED
As to the kind of experiment: Cellular degradation assay, SMARCA4 (Table 1). The experiment is classed as cell-based.

T1 sequence (P51531 whole entry, species assumed): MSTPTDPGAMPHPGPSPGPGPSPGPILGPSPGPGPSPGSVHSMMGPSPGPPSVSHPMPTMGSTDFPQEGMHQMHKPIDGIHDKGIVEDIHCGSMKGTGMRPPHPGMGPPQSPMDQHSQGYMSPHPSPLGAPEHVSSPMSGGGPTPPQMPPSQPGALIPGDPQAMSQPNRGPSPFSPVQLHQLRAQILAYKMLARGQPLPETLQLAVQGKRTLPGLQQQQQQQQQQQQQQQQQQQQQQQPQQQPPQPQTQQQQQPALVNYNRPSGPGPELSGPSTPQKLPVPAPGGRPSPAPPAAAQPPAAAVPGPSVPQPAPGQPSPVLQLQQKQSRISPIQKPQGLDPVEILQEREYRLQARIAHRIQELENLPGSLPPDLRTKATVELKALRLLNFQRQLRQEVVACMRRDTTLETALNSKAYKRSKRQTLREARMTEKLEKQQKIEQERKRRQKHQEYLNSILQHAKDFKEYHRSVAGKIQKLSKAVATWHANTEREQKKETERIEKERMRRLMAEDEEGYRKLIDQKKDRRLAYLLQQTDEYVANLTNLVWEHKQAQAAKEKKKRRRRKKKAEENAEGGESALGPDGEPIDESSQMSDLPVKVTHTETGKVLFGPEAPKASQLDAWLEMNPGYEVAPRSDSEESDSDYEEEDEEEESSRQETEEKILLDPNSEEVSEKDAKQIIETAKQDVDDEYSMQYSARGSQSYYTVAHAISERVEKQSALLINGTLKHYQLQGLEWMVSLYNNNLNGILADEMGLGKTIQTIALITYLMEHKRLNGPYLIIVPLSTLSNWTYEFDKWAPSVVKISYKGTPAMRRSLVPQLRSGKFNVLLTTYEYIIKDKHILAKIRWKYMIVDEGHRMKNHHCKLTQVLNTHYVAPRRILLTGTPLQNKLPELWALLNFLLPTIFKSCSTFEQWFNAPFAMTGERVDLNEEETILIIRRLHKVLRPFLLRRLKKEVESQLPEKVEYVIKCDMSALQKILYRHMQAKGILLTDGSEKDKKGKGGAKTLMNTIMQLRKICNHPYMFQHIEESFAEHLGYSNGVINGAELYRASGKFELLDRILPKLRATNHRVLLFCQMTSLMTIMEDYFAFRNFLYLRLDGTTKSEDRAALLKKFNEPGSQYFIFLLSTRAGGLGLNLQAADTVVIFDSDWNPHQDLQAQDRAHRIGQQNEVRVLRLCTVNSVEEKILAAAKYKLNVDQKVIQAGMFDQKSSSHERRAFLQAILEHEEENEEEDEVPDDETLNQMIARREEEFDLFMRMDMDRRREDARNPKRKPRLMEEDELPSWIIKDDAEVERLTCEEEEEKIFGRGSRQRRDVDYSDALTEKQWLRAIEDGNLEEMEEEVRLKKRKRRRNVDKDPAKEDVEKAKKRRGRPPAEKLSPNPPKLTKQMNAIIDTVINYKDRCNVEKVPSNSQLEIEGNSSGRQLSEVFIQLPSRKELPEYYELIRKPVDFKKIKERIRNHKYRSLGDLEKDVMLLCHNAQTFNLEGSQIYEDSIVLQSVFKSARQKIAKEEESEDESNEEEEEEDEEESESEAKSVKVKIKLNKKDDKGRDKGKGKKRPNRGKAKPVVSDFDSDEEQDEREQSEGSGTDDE

For `O=C1CCC(c2ccc(N3CCC(CN4CC5(C4)CN(CC4(c6ccccc6)CCN(c6cnnc(-c7ccccc7O)c6)CC4)C5)CC3)cc2)C(=O)N1` (racemic) [Example 44, rac-(3R)-3-[4-(4-{[6-({-[6-(2-hydroxyphenyl)pyridazin-4-yl]-4-phenylpiperidin-4-yl}methyl)-2,6-diazaspiro[3.3]heptan-2-yl]methyl}piperidin-1-yl)phenyl]piperidine-2,6-dione], at SMARCA2, the DC50 was found to be 6.22 nM, the Dmax was found to be 86.6% and the “Fold Selectivity SMARCA4/2” value came out at 3.95. On SMARCA4, this compound gave a DC50 of 24.6 nM and a Dmax of 77.5%.
For the compound `Cn1ccc(C2(C(=O)N3CC4(CN(CC5CCN(c6ccc(C7CCC(=O)NC7=O)cc6)CC5)C4)C3)CCN(c3cnnc(-c4ccccc4O)c3)CC2)n1` (racemic) [Example 54, rac-(R)-3-(4-(4-((6-(1-(6-(2-hydroxyphenyl)pyridazin-4-yl)-4-(1-methyl-1H-pyrazol-3-yl)piperidine-4-carbonyl)-2,6-diazaspiro[3.3]heptan-2-yl)methyl)piperidin-1-yl)phenyl)piperidine-2,6-dione], on SMARCA2, the DC50 came to 6.7 nM, the Dmax stood at 80.5% and the “Fold Selectivity SMARCA4/2” value was found to be 8.74. On SMARCA4, this compound displayed a DC50 of 58.6 nM and a Dmax of 56.8%.
For `CC(C)c1cc(C2(C(=O)N(C)C3CCN(C4COC5(CCN(c6ccc([C@H]7CCC(=O)NC7=O)cc6)CC5)C4)CC3)CCN(c3cnnc(-c4ccccc4O)c3)CC2)no1` (mixture of isomers) [Example 59, N-{1-[(3RS)-8-{4-[(3R)-2,6-dioxopiperidin-3-yl]phenyl}-1-oxa-8-azaspiro[4.5]decan-3-yl]piperidin-4-yl}-1-[6-(2-hydroxyphenyl)pyridazin-4-yl]-N-methyl-4-[5-(propan-2-yl)-1,2-oxazol-3-yl]piperidine-4-carboxamide], on SMARCA2, half-maximal degradation (DC50) was put at 11.9 nM, the Dmax is 72.8% and the “Fold Selectivity SMARCA4/2” value was 842. Besides, the Dmax on SMARCA4 worked out at 26%.
As to `Cc1cc(C2(C(=O)N(C)C3CCN(CCC4CCN(c5ccc(C6CCC(=O)NC6=O)c(F)c5)CC4)CC3)CCN(c3cnnc(-c4ccccc4O)c3)CC2)on1` (racemic) [Example 60, rac-N-{1-[2-(1-{4-[(3R)-2,6-dioxopiperidin-3-yl]-3-fluorophenyl}piperidin-4-yl)ethyl]piperidin-4-yl}-1-[6-(2-hydroxyphenyl)pyridazin-4-yl]-N-methyl-4-(3-methyl-1,2-oxazol-5-yl)piperidine-4-carboxamide], at SMARCA2, it took 3.79 nM to reach half-maximal degradation (DC50), the Dmax is 85.7% and the “Fold Selectivity SMARCA4/2” value turned out to be 2639. Besides, the Dmax at SMARCA4 turned out to be 35.7%.
Regarding `Cc1ccnn1C1(C(=O)N(C)C2CCN(CCC3CCN(c4cccc5c4n(C)c(=O)n5C4CCC(=O)NC4=O)CC3)CC2)CCN(c2cnnc(-c3ccccc3O)c2)CC1` (racemic) [Example 61, rac-N-{1-[2-(1-{1-[(3R)-2,6-dioxopiperidin-3-yl]-3-methyl-2-oxo-2,3-dihydro-1H-1,3-benzodiazol-4-yl}piperidin-4-yl)ethyl]piperidin-4-yl}-1-[6-(2-hydroxyphenyl)pyridazin-4-yl]-n-methyl-4-(5-methyl-1H-pyrazol-1-yl)piperidine-4-carboxamide], on SMARCA2, the half-maximal degradation concentration (DC50) stood at 0.18 nM, the Dmax was found to be 96.7% and the “Fold Selectivity SMARCA4/2” value worked out at 19. In addition, at SMARCA4, it took 3.49 nM to reach half-maximal degradation (DC50) and the greatest degradation seen (Dmax) came to 86.8%.
The matching figures for `CN(C(=O)C1(c2ccnn2C)CCN(c2cnnc(-c3ccccc3O)c2)CC1)C1CCN(CCC2CCN(c3cccc4c3n(C)c(=O)n4C3CCC(=O)NC3=O)CC2)CC1` (racemic) [Example 62, rac-N-{1-[2-(1-{1-[(3R)-2,6-dioxopiperidin-3-yl]-3-methyl-2-oxo-2,3-dihydro-1H-1,3-benzodiazol-4-yl}piperidin-4-yl)ethyl]piperidin-4-yl}-1-[6-(2-hydroxyphenyl)pyridazin-4-yl]-N-methyl-4-(1-methyl-1H-pyrazol-5-yl)piperidine-4-carboxamide]: 0.25 nM, 93.2%, 602, 151 nM and 52.3%.
In the case of `Cc1ccnn1C1(C(=O)N(C)C2CCN(C3COC4(CCN(c5ccc([C@H]6CCC(=O)NC6=O)cc5)CC4)C3)CC2)CCN(c2cnnc(-c3ccccc3O)c2)CC1` (mixture of isomers) [Example 63, N-{1-[(3RS)-8-{4-[(3R)-2,6-dioxopiperidin-3-yl]phenyl}-1-oxa-8-azaspiro[4.5]decan-3-yl]piperidin-4-yl}-1-[6-(2-hydroxyphenyl)pyridazin-4-yl]-n-methyl-4-(5-methyl-1H-pyrazol-1-yl)piperidine-4-carboxamide], at SMARCA2, it took 8.77 nM to reach half-maximal degradation (DC50), the Dmax came out at 80.5% and the “Fold Selectivity SMARCA4/2” value is reported as 1140. This compound registered a Dmax at SMARCA4 of 32.2%.
Turning to `CN(C(=O)C1(c2cnn(C)c2)CCN(c2cnnc(-c3ccccc3O)c2)CC1)C1CCN(C2COC3(CCN(c4ccc([C@H]5CCC(=O)NC5=O)cc4)CC3)C2)CC1` (mixture of isomers) [Example 64, N-{1-[(3RS)-8-{4-[(3R)-2,6-dioxopiperidin-3-yl]phenyl}-1-oxa-8-azaspiro[4.5]decan-3-yl]piperidin-4-yl}-1-[6-(2-hydroxyphenyl)pyridazin-4-yl]-n-methyl-4-(1-methyl-1H-pyrazol-4-yl)piperidine-4-carboxamide], on SMARCA2, the DC50 turned out to be 5.51 nM, the Dmax was 81.3% and the “Fold Selectivity SMARCA4/2” value was determined as 1815. In addition, on SMARCA4, the Dmax is 30.4%.
With `Cc1ccnn1C1(C(=O)N(C)C2CCN(CCC3CCN(c4ccc(C5CCC(=O)NC5=O)c(F)c4)CC3)CC2)CCN(c2cnnc(-c3ccccc3O)c2)CC1` (racemic) [Example 65, rac-N-{1-[2-(1-{4-[(3R)-2,6-dioxopiperidin-3-yl]-3-fluorophenyl}piperidin-4-yl)ethyl]piperidin-4-yl}-1-[6-(2-hydroxyphenyl)pyridazin-4-yl]-n-methyl-4-(5-methyl-1H-pyrazol-1-yl)piperidine-4-carboxamide], at SMARCA2, the DC50 turned out to be 3.33 nM, the Dmax turned out to be 89.2% and the “Fold Selectivity SMARCA4/2” value stood at 27. Moreover, on SMARCA4, it took 88.6 nM to reach half-maximal degradation (DC50) and the maximal degradation (Dmax) was 55.4%.
With `Cn1ccc(OC2(C(=O)N3CC4(CN(CCC5CCN(c6ccc(C7CCC(=O)NC7=O)c(F)c6)CC5)C4)C3)CCN(c3cnnc(-c4ccccc4O)c3)CC2)n1` (racemic) [Example 66, rac-3-(2-fluoro-4-(4-(2-(6-(1-(6-(2-hydroxyphenyl)pyridazin-4-yl)-4-((1-methyl-1H-pyrazol-3-yl)oxy)piperidine-4-carbonyl)-2,6-diazaspiro[3.3]heptan-2-yl)ethyl)piperidin-1-yl)phenyl)piperidine-2,6-dione], on SMARCA2, the DC50 came to 10.6 nM, the Dmax stood at 73.7% and the “Fold Selectivity SMARCA4/2” value worked out at 947. This compound returned a Dmax at SMARCA4 of 20.7%.

The record behind these values is patent US20250051344A1, “BIFUNCTIONAL SELECTIVE DEGRADERS OF SMARCA2 AND THERAPEUTIC USES THEREOF” (Nurix Therapeutics, Inc., priority 2023, published 2025).
